Data on eleven molecules can be found in ChEMBL document CHEMBL2057206, “Symmetrical approach of spiro-pyrazolidinediones as acetyl-CoA carboxylase inhibitors” (Bioorg Med Chem Lett, 2012).

Activity calls are given as the source filed them. The calls are words filed in the database; no cut-off is given here.

In data set [1] the target is Acetyl-CoA carboxylase 1 (Homo sapiens, UniProt Q13085). Kind of data set: Inhibition of human ACC1 using acetyl-coA as substrate incubated for 60 mins prior to substrate addition measured after 20 mins by malachite green assay.
The target of another data set is Acetyl-CoA carboxylase 2 (Homo sapiens, UniProt O00763). The data set is described as follows: Inhibition of human ACC2 using acetyl-coA as substrate incubated for 60 mins prior to substrate addition measured after 20 mins by malachite green assay.
The nature of data set [2]: Clearance in human liver microsomes assessed per mg of protein. Type of data set: ADME, Microsome. The settings on record: read-out: CLH. A general note: Liver microsomes are a subcellular fraction often used to study metabolism.
A short description of data set [3]: Lipophilicity, log D of the compound by HPLC analysis at pH 7. The class given is physicochemical. The settings on record: buffer.
Data set [4] deals with Acetyl-CoA carboxylase 1 (Rattus norvegicus, UniProt P11497). The data set is described as follows: Inhibition of rat ACC1.
A short description of data set [5]: Inhibition of rat ACC2.
Data set [6] concerns Rattus norvegicus. The data set is described as follows: Antidyslipidemic activity in po dosed Wistar fatty rat assessed as reduction in respiratory quoteint after 3 hrs. The class given is functional, organism-based.
Data set [7] relates to Rattus norvegicus. Kind of data set: Antidyslipidemic activity in Wistar fatty rat assessed as reduction in respiratory quoteint at 1 mg/kg, po after 3 hrs. The class given is functional, organism-based. Also noted: dose 1 mg/kg.

Sequence of Acetyl-CoA carboxylase 2 (O00763 whole entry): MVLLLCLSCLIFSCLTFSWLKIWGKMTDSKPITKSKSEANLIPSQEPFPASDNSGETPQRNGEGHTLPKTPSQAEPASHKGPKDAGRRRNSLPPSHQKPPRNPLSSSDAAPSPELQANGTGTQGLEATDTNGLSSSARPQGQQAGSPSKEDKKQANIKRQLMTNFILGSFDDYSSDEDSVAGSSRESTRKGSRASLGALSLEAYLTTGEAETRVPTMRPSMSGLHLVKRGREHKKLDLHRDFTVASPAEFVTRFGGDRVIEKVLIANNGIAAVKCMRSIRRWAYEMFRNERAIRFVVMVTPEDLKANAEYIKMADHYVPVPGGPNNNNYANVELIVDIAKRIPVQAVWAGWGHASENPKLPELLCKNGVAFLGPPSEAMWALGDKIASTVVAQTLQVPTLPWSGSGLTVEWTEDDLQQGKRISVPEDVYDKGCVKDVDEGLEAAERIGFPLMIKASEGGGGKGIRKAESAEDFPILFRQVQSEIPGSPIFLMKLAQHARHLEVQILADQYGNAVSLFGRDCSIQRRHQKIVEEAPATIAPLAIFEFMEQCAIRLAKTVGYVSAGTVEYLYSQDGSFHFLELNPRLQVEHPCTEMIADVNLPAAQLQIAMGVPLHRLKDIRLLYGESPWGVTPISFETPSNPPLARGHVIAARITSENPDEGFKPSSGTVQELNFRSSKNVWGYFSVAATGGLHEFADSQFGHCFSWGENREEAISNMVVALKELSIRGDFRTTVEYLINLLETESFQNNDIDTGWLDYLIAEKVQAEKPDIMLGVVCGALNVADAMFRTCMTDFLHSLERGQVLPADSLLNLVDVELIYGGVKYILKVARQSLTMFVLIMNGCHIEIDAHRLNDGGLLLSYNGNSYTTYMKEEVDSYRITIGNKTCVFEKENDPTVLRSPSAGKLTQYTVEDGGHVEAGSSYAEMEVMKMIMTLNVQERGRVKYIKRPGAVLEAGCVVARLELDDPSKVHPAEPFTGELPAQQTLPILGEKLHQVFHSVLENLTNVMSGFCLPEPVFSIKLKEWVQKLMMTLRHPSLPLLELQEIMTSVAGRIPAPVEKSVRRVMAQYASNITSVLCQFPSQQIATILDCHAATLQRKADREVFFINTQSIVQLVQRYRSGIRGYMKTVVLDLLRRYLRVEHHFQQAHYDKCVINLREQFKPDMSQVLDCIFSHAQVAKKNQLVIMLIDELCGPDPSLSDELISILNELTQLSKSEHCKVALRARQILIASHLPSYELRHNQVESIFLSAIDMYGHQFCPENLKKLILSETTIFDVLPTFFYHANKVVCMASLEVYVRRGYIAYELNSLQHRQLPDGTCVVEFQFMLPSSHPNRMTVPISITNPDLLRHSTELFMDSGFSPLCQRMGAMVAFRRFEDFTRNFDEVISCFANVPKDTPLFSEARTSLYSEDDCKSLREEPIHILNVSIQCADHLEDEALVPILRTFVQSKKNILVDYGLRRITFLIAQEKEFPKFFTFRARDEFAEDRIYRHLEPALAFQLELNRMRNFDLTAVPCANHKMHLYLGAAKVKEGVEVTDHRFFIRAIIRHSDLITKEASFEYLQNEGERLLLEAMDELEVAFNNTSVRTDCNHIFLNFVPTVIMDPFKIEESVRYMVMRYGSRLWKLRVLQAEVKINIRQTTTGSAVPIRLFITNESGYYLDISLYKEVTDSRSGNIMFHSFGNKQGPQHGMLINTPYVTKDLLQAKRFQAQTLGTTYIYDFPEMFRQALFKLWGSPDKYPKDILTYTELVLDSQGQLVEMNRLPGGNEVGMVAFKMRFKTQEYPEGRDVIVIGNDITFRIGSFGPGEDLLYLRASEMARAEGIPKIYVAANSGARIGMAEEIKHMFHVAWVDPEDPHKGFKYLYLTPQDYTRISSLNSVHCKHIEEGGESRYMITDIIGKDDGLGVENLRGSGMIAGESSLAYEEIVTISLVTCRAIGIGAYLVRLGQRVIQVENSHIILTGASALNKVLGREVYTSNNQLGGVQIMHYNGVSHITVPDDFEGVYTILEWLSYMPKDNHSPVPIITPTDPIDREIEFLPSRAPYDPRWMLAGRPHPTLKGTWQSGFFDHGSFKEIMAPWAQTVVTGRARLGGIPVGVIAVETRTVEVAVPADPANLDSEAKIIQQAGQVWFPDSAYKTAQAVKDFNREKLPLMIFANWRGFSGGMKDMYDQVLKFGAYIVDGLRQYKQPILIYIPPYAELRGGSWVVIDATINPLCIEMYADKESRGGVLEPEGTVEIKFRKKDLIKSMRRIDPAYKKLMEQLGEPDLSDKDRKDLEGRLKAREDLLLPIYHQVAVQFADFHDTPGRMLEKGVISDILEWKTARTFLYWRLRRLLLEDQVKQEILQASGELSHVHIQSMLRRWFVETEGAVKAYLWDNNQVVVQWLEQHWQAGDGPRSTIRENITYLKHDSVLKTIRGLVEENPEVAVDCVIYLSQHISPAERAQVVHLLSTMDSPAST

Broadly, the IC50 is the point on the concentration scale where inhibition reaches its midpoint. One may read the logD as lipophilicity at a set pH, counting ionised and neutral species. Consider `CNC(=O)Nc1sc2c(OC)cccc2c1C(=O)N1CCC(N2CCCC3(C2)C(=O)N2CCCCN2C3=O)CC1`, for which the figures for the IC50 at Acetyl-CoA carboxylase 1 [1] and against Acetyl-CoA carboxylase 2 were 25 nM and 6.1 nM, respectively. In addition, the microsomal CLint in data set [2] was determined as 6 µL/min/mg. The logD in data set [3] turned out to be 2.08.
The like results for `COc1cccc2c(C(=O)N3CCC(N4CCCC5(C4)C(=O)N4CCCCN4C5=O)CC3)c(NC(N)=O)sc12` were, in that order, 22 nM, 5.9 nM, 15 µL/min/mg and 1.76.
For `CNC(=O)Nc1sc2ccccc2c1C(=O)N1CCC(N2CCCC3(C2)C(=O)N2CCCCN2C3=O)CC1`, the IC50 against Acetyl-CoA carboxylase 1 [1] was 200 nM; against Acetyl-CoA carboxylase 2, 36 nM. The microsomal CLint in data set [2] was 12 µL/min/mg. The molecule further displayed a logD in data set [3] of 2.14.
For `CNC(=O)Nc1sc2ccccc2c1C(=O)N1CCC(N2CCCC3(C2)C(=O)N2CCCCCN2C3=O)CC1`, the IC50 against Acetyl-CoA carboxylase 1 [1] was 48 nM; at Acetyl-CoA carboxylase 2 it was 8.7 nM. Besides, the microsomal CLint in data set [2] is 71 µL/min/mg. For the same molecule, the logD in data set [3] is 2.14.
On the same counts, the results for `CCNC(=O)Nc1sc2ccccc2c1C(=O)N1CCC(N2CCCC3(C2)C(=O)N2CCCCCCN2C3=O)CC1` are 22 nM, 5.1 nM, 200 µL/min/mg and 2.73.
As to `CCN1C(=O)C2(CCCN(C3CCN(C(=O)c4c(NC(=O)NC)sc5ccccc45)CC3)C2)C(=O)N1CC`, the IC50 on Acetyl-CoA carboxylase 1 [1] was 41 nM; at Acetyl-CoA carboxylase 2, 8.1 nM. Further, in data set [2], the microsomal CLint stood at 120 µL/min/mg. In data set [3], this molecule displayed a logD of 2.33.
On the same counts, the results for `CCNC(=O)Nc1sc2ccccc2c1C(=O)N1CCC(N2CCCC3(C2)C(=O)N2CCCCCN2C3=O)CC1` are 43 nM, 7.5 nM, 100 µL/min/mg and 2.48.
On the same counts, the results for `CCNC(=O)Nc1sc2ccccc2c1C(=O)N1CCC(N2CCCC3(C2)C(=O)N2CCCN2C3=O)CC1` are 170 nM, 33 nM, 25 µL/min/mg and 1.93.
On the same counts, the results for `CCNC(=O)Nc1sc2ccccc2c1C(=O)N1CCC(N2CCCC3(C2)C(=O)N2CCCCN2C3=O)CC1` are 130 nM, 23 nM, 18 µL/min/mg and 2.45.
`CCNC(=O)Nc1sc2ccccc2c1C(=O)N1CCC(N2CCCC3(C2)C(=O)N(C)N(C)C3=O)CC1`: the IC50 against Acetyl-CoA carboxylase 1 [1] was 120 nM; against Acetyl-CoA carboxylase 2, 20 nM. The microsomal CLint in data set [2] was found to be 12 µL/min/mg. The logD in data set [3] turned out to be 2.03.
`CCNC(=O)Nc1sc2c(OC)cccc2c1C(=O)N1CCC(N2CCCC3(C2)C(=O)N2CCCCN2C3=O)CC1`: the IC50 came out at 21 nM against Acetyl-CoA carboxylase 1 [1], 4.9 nM against Acetyl-CoA carboxylase 2, 28 nM against Acetyl-CoA carboxylase 1 [4] and 13 nM in data set [5]. For the same molecule, in data set [2], the microsomal CLint came to 35 µL/min/mg. The molecule also showed a logD in data set [3] of 2.33. For the same molecule, the Activity result in the data set on Rattus norvegicus [6] is “Dose-dependent effect”. For the same molecule, the outcome in the data set with Rattus norvegicus [7] was Active.
